# In ChEMBL document CHEMBL1817620, “Synthesis and cytotoxicity of 2-phenylquinazolin-4(3H)-one derivatives” (Eur J Med Chem, 2011):
# Activity calls are given as the source filed them. No cut-off for these calls is given here.
# What was measured:
# HCT-29 = assay: Cytotoxicity against human HCT29 cells after 4 days by MTT assay; type: functional, cell-based; conditions: HCT-29, 96 h
# DU-145 = assay: Cytotoxicity against human DU145 cells after 4 days by MTT assay; type: functional, cell-based; conditions: DU-145, 96 h
# HL-60 = assay: Cytotoxicity against human HL60 cells after 4 days by MTT assay; type: functional, cell-based; conditions: HL-60, 96 h
# HeLa [1] = assay: Cytotoxicity against human HeLa cells after 4 days by MTT assay; type: functional, cell-based; conditions: 96 h
# MDA-MB-231 = assay: Cytotoxicity against human MDA-MB-231 cells after 4 days by MTT assay; type: functional, cell-based; conditions: MDA-MB-231, 96 h
# HeLa [2] = assay: Cell cycle arrest in human HeLa cells assessed as fold increase in G1 phase at 10 umol after 36 hrs using propidium iodide staining by flow cytometry relative to control; type: functional
# HeLa [3] = assay: Cell cycle arrest in human HeLa cells assessed as enhanced ratio of cell death at 10 umol after 72 hrs using propidium iodide staining by flow cytometry relative to control; type: functional
# [4] = target: Poly [ADP-ribose] polymerase 1 (Homo sapiens) (UniProt P09874); assay: Inhibition of PARP1
# Chain of Poly [ADP-ribose] polymerase 1 (Homo sapiens) (P09874 whole entry): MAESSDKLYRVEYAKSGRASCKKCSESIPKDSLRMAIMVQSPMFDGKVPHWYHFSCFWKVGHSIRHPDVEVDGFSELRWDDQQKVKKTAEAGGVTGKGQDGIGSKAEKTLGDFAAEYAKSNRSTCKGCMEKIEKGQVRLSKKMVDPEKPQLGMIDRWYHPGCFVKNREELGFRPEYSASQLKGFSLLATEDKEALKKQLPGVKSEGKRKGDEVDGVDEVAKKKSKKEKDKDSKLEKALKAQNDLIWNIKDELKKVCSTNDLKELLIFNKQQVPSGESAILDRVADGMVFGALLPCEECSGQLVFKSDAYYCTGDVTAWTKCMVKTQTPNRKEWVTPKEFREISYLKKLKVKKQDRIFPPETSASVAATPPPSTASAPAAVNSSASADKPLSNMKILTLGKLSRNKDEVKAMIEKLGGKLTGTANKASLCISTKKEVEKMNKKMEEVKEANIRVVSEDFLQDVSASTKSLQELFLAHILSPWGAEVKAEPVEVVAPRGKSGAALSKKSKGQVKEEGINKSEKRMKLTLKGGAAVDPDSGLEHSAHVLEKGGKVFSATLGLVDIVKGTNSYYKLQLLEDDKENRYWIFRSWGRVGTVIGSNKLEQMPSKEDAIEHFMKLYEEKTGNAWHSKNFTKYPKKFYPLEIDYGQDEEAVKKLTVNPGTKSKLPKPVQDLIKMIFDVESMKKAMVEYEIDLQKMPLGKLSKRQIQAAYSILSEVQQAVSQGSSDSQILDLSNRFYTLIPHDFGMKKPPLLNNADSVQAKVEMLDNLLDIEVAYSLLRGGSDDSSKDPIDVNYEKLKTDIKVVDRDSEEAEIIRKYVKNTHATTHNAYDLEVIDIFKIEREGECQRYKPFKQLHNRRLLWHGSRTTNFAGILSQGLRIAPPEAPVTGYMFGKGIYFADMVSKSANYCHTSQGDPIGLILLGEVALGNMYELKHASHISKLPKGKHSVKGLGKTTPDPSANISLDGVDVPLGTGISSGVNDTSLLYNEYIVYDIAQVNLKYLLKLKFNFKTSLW
Structure (SMILES),IC50 (HCT-29) [µM],IC50 (DU-145) [µM],IC50 (HL-60) [µM],IC50 (HeLa [1]) [µM],IC50 (MDA-MB-231) [µM],fold change (FC) (HeLa [2]),Ratio (HeLa [3]),inhibition [4]
O=C(c1ccc(-c2nc3ccccc3c(=O)[nH]2)cc1)N1CCNCC1,> 50,24.3,16.7,> 50,> 50,–,–,–
CC(C)c1ccc(S(=O)(=O)N2CCN(C(=O)c3ccc(-c4nc5ccccc5c(=O)[nH]4)cc3)CC2)cc1,9,16.2,2.6,17.2,9.4,–,–,–
O=C(c1ccc(-c2nc3ccccc3c(=O)[nH]2)cc1)N1CCN(S(=O)(=O)C2CC2)CC1,> 50,6,10.8,> 50,8.2,–,–,–
O=C(c1ccc(-c2nc3ccccc3c(=O)[nH]2)cc1)N1CCN(S(=O)(=O)c2ccccc2C(F)(F)F)CC1,> 50,24.7,14.1,8.3,5.5,–,–,–
O=C(c1ccc(-c2nc3ccccc3c(=O)[nH]2)cc1)N1CCN(S(=O)(=O)c2cccs2)CC1,15.7,21.3,2.2,> 50,9.4,–,–,–
Cc1ccc(S(=O)(=O)N2CCN(C(=O)c3ccc(-c4nc5ccccc5c(=O)[nH]4)cc3)CC2)cc1,10.5,18.1,8.4,23.5,43.5,–,–,–
CS(=O)(=O)N1CCN(C(=O)c2ccc(-c3nc4ccccc4c(=O)[nH]3)cc2)CC1,> 50,20,11.6,> 50,6.4,–,–,–
Cn1c(-c2ccc(C(=O)N3CCN(S(=O)(=O)c4ccccc4)CC3)cc2)nc2ccccc2c1=O,13.3,10.4,5.9,14.1,9.1,–,–,–
Cn1c(-c2ccc(C(=O)N3CCN(C(=O)OC(C)(C)C)CC3)cc2)nc2ccccc2c1=O,28,17.2,9.5,15.5,24.9,–,–,–
O=C(c1ccc(-c2nc3ccccc3c(=O)[nH]2)cc1)N1CCN(S(=O)(=O)c2ccc3ccccc3c2)CC1,16.5,27.8,26.6,13.3,> 50,–,–,–
O=C(c1ccc(-c2nc3ccccc3c(=O)n2Cc2ccccc2)cc1)N1CCN(S(=O)(=O)c2ccccc2)CC1,23.6,15.3,4.2,20.1,19.3,–,–,–
O=C(c1ccc(-c2nc3ccccc3c(=O)[nH]2)cc1)N1CCN(S(=O)(=O)c2ccc(Cl)cc2)CC1,> 50,> 50,13.6,18,> 50,–,–,–
O=C(c1ccc(-c2nc3ccccc3c(=O)[nH]2)cc1)N1CCN(S(=O)(=O)c2ccc(F)cc2)CC1,11.1,35,10.9,35.4,27.7,–,–,–
O=C(O)c1ccc(-c2nc3ccccc3c(=O)[nH]2)cc1,30.6,28.1,11.7,> 50,> 50,–,–,–
CCCCS(=O)(=O)N1CCN(C(=O)c2ccc(-c3nc4ccccc4c(=O)[nH]3)cc2)CC1,10.3,17.9,14.9,17.3,1.2,–,–,–
O=C(c1ccc(-c2nc3ccccc3c(=O)[nH]2)cc1)N1CCN(S(=O)(=O)Cc2ccccc2)CC1,2.3,7.7,18.7,9.1,15.8,1.21,7.04,inactive
COc1cccc2c1C(=O)c1c(O)c3c(c(O)c1C2=O)C[C@@](O)(C(=O)CO)C[C@@H]3O[C@H]1C[C@H](N)[C@H](O)[C@H](C)O1 [DOXORUBICIN],2.5,1.9,0.8,3.7,–,–,–,–

Structure (SMILES),IC50 (HCT-29) [µM],IC50 (DU-145) [µM],IC50 (HL-60) [µM],IC50 (HeLa [1]) [µM],IC50 (MDA-MB-231) [µM],fold change (FC) (HeLa [2]),Ratio (HeLa [3]),inhibition [4]
CC(C)(C)OC(=O)N1CCN(C(=O)c2ccc(-c3nc4ccccc4c(=O)[nH]3)cc2)CC1,20.7,> 50,15.4,20.7,8.5,–,–,–
O=C(c1ccc(-c2nc3ccccc3c(=O)[nH]2)cc1)N1CCN(S(=O)(=O)c2ccccc2)CC1,12.5,7.1,14.3,8.9,32.6,–,–,–
O=C(c1ccc(-c2nc3ccccc3c(=O)[nH]2)cc1)N1CCN(S(=O)(=O)C2CCCC2)CC1,12.9,4.8,11.2,11.2,14.7,1.2,5.96,–
COc1ccc(Cn2c(-c3ccc(C(=O)N4CCN(S(=O)(=O)c5ccccc5)CC4)cc3)nc3ccccc3c2=O)cc1,8.6,2.5,2.6,2.9,4.2,1.19,6.83,–
O=C(c1ccc(-c2nc3ccccc3c(=O)[nH]2)cc1)N1CCN(S(=O)(=O)c2cccc3ccccc23)CC1,11.6,9.9,7,11.7,22.2,–,–,–
O=C(c1ccc(-c2nc3ccccc3c(=O)[nH]2)cc1)N1CCN(S(=O)(=O)c2ccc([N+](=O)[O-])cc2)CC1,2.6,25.2,2,20,12.5,–,–,inactive
O=C(c1ccc(-c2nc3ccccc3c(=O)[nH]2)cc1)N1CCN(S(=O)(=O)c2cccc3cccnc23)CC1,> 50,15.6,14.6,11.1,6.3,–,–,–
COc1ccc(S(=O)(=O)N2CCN(C(=O)c3ccc(-c4nc5ccccc5c(=O)[nH]4)cc3)CC2)cc1,21.6,27,7.5,> 50,5.1,–,–,–
CC(C)S(=O)(=O)N1CCN(C(=O)c2ccc(-c3nc4ccccc4c(=O)[nH]3)cc2)CC1,> 50,17.4,7.5,11,5.8,–,–,–
O=C(c1ccc(-c2nc3ccccc3c(=O)[nH]2)cc1)N1CCN(S(=O)(=O)Cc2ccc(Cl)cc2)CC1,12.6,27.1,> 50,4.4,> 50,1.2,8.74,–
Cc1ccc(CS(=O)(=O)N2CCN(C(=O)c3ccc(-c4nc5ccccc5c(=O)[nH]4)cc3)CC2)cc1,19.5,29.6,16.7,9,7.7,–,–,–
CC(C)(C)OC(=O)N1CCN(C(=O)c2ccc(-c3nc4ccccc4c(=O)n3Cc3ccccc3)cc2)CC1,> 50,> 50,2.9,21.6,40.4,–,–,–
COc1ccc(S(=O)(=O)N2CCN(C(=O)c3ccc(-c4nc5ccccc5c(=O)n4Cc4ccccc4)cc3)CC2)cc1,22.5,16,6.1,34.2,48.1,–,–,–
COc1ccc(Cn2c(-c3ccc(C(=O)N4CCN(S(=O)(=O)c5ccc(OC)cc5)CC4)cc3)nc3ccccc3c2=O)cc1,5.8,5.8,3.8,16.5,9.9,1.18,7.29,–
O=C(c1ccc(-c2nc3ccccc3c(=O)[nH]2)cc1)N1CCN(S(=O)(=O)c2cccc(C(F)(F)F)c2)CC1,9.5,14.1,23.5,9.3,> 50,–,–,–
O=C(c1ccc(-c2nc3ccccc3c(=O)[nH]2)cc1)N1CCN(S(=O)(=O)c2ccc(C(F)(F)F)cc2)CC1,21.6,14.9,6.5,13.4,31.4,–,–,–
COc1ccc(S(=O)(=O)N2CCN(C(=O)c3ccc(-c4nc5ccccc5c(=O)n4C)cc3)CC2)cc1,25.8,21.5,5.9,23.7,> 50,–,–,–
